Test results from publication PMC7880690, “Chemical genetics and proteome-wide site mapping reveal cysteine MARylation by PARP-7 on immune-relevant protein targets” (eLife, 2021).

Key:
[1] = target: T1, IG-PARP-12 (I660G PARP-12) (Homo sapiens, UniProt Q9H0J9, I660G); test: Labeling by orthogonal NAD+ analogs with PARP-12 I660G mutant; type: biochemical; conditions: compared to 5-Bn-6-a-NAD+
T1 construct: GFP; expressed in transfected cells
Text: Figure 1. A chemical genetic strategy for identifying the direct MARylation targets of PARP-7. (a) Schematic of chemical genetic approach for identifying direct targets of PARP-7. (b) Crystal structure of human PARP1 bound to the non-hydrolyzable NAD^+ analog benzamide adenine dinucleotide (BAD). PDB: 6bhv. […] (c) Chemical structure of the clickable, orthogonal NAD^+ analogs. 5-Bn-2-e-NAD^+ is the optimized substrate for the floor position engineered PARP-7, IG-PARP-7. 5-Bn-6-a-NAD^+ was used in our previous studies by other floor position engineered PARPs (e.g. PARP14). (d) 5-Bn-2-e-NAD^+ is an efficient substrate for IG-PARP-7. HEK293T cells were transfected with either GFP-WT-PARP-7 (control) or GFP-IG-PARP-7. Cell lysates were prepared and incubated with either 5-Bn-2-e-NAD^+ or 5-Bn-6-a-NAD^+ (100 µM). Following copper-catalyzed click chemistry with biotin-azide, proteins were resolved by SDS-PAGE and biotinylated proteins were detected by Western blot detection using Streptavidin-HRP. Biotinylated proteins represent direct MARylation targets of PARP-7. Figure 1—figure supplement 1. Enrichment of PARP-7 MARylation targets and labeling of PARP-12 IG targets using a chemical genetic approach. (a) Labeling of PARP-7 MARylation targets was performed as described in Figure 1. Neutravidin agarose was used to enrich biotinylated proteins (i.e. MARylation targets). […]

PARP2FL = PARP2FL (Homo sapiens, UniProt Q9UGN5); test: ADP-ribosylation plate assay, PARP2FL
PARP3FL = target: T2, PARP3FL (Homo sapiens, UniProt Q9Y6F1); test: ADP-ribosylation plate assay, PARP3FL
T2 sequence (Q9Y6F1 1-533): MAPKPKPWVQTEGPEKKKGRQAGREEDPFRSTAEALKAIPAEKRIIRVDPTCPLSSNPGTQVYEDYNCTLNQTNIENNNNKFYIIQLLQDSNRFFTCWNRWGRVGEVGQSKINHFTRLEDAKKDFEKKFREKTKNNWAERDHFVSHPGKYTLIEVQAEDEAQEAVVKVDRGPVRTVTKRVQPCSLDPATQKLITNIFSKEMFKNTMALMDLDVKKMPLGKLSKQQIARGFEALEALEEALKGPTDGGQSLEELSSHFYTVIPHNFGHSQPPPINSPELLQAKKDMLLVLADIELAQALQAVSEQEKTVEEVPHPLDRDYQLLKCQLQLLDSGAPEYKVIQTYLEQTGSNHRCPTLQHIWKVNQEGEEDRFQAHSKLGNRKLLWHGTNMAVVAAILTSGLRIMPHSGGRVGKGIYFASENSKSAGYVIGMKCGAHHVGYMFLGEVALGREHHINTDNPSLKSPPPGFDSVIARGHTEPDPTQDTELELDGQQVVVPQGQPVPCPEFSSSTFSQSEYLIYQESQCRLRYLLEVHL

PARP11FL = target: T3, PARP11FL (Homo sapiens, UniProt Q9NR21); test: ADP-ribosylation plate assay, PARP11FL
T3 sequence (Q9NR21 1-338): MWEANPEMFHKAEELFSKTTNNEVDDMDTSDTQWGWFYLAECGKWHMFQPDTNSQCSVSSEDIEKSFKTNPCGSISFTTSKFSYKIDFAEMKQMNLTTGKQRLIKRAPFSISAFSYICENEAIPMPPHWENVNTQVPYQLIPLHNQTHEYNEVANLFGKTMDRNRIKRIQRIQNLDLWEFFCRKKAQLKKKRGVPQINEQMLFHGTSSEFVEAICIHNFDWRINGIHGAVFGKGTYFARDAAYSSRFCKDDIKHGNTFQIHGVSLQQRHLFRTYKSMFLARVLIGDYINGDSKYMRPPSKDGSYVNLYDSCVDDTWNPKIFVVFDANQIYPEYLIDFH

PARP-7 = target: T4, PARP-7 (Homo sapiens, UniProt Q7Z3E1); conditions: 1 μM, HEK 293 T cells
T4 sequence (Q7Z3E1 1-657): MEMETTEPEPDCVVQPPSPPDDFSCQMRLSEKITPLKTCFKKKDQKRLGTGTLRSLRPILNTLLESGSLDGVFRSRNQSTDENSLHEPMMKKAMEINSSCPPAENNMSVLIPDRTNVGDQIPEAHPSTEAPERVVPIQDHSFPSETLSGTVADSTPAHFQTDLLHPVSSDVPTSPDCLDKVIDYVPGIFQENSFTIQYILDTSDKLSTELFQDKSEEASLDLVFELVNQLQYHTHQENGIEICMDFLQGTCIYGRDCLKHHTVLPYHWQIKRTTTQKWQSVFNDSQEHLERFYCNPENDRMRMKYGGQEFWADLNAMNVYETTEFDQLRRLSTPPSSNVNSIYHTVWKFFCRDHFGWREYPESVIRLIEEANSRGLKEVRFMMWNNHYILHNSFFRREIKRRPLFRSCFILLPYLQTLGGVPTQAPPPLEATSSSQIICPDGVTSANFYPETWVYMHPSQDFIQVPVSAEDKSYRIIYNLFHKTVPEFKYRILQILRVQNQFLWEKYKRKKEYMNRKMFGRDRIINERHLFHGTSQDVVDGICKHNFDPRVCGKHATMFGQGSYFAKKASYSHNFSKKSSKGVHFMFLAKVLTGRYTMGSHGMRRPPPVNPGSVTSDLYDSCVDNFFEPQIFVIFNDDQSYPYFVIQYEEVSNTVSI

T1 sequence (Q9H0J9 whole entry I660G): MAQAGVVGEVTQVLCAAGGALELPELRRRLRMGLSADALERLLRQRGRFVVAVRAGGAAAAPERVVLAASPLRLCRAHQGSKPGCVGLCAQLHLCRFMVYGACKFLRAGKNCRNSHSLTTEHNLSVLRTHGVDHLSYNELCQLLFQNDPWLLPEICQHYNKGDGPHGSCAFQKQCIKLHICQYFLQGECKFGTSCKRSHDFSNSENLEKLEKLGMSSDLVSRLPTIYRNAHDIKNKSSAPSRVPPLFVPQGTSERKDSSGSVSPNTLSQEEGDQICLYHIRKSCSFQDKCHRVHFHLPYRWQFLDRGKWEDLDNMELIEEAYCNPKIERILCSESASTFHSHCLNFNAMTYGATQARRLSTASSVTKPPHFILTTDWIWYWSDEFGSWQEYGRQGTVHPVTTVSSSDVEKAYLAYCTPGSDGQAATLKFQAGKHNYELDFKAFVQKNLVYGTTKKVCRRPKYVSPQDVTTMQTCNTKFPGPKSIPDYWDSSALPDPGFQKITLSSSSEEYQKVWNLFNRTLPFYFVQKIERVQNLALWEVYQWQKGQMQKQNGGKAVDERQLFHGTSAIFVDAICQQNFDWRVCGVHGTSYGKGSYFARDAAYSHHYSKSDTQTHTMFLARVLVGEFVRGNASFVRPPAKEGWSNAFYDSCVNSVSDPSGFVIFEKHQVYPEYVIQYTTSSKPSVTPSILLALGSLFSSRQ
PARP2FL, sequence (Q9UGN5 whole entry): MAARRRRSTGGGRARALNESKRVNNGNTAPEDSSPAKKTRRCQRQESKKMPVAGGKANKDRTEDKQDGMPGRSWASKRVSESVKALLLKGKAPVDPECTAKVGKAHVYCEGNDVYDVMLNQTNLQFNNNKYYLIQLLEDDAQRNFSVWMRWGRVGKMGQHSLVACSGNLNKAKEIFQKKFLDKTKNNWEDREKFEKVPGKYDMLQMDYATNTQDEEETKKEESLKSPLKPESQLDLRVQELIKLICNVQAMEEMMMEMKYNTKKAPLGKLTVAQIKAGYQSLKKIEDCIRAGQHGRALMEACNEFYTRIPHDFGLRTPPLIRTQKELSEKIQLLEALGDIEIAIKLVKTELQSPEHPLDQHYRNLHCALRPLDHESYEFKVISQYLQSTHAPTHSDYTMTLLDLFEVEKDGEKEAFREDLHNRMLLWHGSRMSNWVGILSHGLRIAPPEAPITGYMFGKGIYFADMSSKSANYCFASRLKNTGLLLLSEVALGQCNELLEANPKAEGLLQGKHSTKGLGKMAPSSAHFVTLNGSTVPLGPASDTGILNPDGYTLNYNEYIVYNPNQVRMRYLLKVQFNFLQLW

| SMILES | substrate for IG-PARP-12 [1] | IC50 (PARP2FL) | IC50 (PARP3FL) | IC50 (PARP11FL) | inhibition of PARP-7-mediated trans-MARylation of PARP-13.2 (PARP-7) |
| --- | --- | --- | --- | --- | --- |
| C#Cc1nc(N)c2ncn(C3OC(COP(=O)(O)OP(=O)([O-])OCC4OC([n+]5cc(Cc6ccccc6)cc(C(N)=O)c5)C(O)C4O)C(O)C3O)c2n1 (centres unmarked) [5-Bn-2-e-NAD^+, 5-benzyl-2-ethynyl-NAD^+] | better substrate | – | – | – | – |
| N#Cc1ccc(N2CCN(C(=O)c3cc(Cc4n[nH]c(=O)c5ccccc45)ccc3F)CC2)nc1 [Phthal01, 6-(4-(2-fluoro-5-((4-oxo-3,4-dihydrophthalazin-1-yl)methyl)benzoyl)piperazin-1-yl)nicotinonitrile] | – | 28 nM | 320 ± 2 nM | 460 ± 20 nM | completely inhibits |
